Like-named read-outs stand apart in the source and are kept apart here.
Tests used:
ADORA2A = molecular target: T1, ADORA2A (Homo sapiens, UniProt P29274); assay: Safety47 Calcium Flux ADORA2A; format: cell-based; details: for Emax: read-out: Max Response; for EC50: read-out: RC50 (EC50); for IC50: read-out: RC50 (IC50)
T1 construct: purchased Eurofins Panlab Safety47 Safety Scan

ADRA1A = molecular target: T2, ADRA1A (Homo sapiens, UniProt P35348); assay: Safety47 Calcium Flux ADRA1A; format: cell-based; details: for Emax: read-out: Max Response; for EC50: read-out: RC50 (EC50); for IC50: read-out: RC50 (IC50)
T2 construct: purchased Eurofins Panlab Safety47 Safety Scan
T2 sequence (P35348 1-466): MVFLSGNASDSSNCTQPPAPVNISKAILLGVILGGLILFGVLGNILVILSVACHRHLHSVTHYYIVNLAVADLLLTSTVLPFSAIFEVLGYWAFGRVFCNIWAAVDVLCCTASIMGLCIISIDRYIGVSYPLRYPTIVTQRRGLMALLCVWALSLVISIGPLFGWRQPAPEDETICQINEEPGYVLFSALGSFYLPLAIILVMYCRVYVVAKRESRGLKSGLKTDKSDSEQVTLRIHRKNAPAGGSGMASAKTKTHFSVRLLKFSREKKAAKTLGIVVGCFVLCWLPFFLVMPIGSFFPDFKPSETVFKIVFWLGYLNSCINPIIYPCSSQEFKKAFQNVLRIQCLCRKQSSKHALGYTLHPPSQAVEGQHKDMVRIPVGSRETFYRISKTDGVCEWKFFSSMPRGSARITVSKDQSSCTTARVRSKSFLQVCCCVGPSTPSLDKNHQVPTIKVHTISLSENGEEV

CHRM2 = molecular target: T3, CHRM2 (Homo sapiens, UniProt P08172); assay: Safety47 cAMP CHRM2; format: cell-based; details: for Emax: read-out: Max Response; for EC50: read-out: RC50 (EC50); for IC50: read-out: RC50 (IC50)
T3 construct: purchased Eurofins Panlab Safety47 Safety Scan
T3 sequence (P08172 1-466): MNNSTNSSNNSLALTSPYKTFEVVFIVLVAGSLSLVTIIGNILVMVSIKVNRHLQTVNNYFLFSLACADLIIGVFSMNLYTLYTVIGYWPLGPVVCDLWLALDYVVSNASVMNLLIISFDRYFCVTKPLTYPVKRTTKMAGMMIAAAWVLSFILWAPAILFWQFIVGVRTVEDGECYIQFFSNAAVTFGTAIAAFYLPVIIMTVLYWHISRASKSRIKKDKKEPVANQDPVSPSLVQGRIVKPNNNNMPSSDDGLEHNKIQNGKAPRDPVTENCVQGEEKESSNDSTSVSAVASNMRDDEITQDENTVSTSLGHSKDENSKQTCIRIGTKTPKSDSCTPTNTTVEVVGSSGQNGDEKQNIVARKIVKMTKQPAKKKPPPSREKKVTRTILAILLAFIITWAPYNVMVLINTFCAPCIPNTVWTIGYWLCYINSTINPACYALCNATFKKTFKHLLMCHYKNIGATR

CNR1 = molecular target: T4, CNR1 (Homo sapiens, UniProt P21554); assay: Safety47 cAMP CNR1; format: cell-based; details: for Emax: read-out: Max Response; for EC50: read-out: RC50 (EC50); for IC50: read-out: RC50 (IC50)
T4 construct: purchased Eurofins Panlab Safety47 Safety Scan

OPRD1 = molecular target: T5, OPRD1 (Homo sapiens, UniProt P41143); assay: Safety47 cAMP OPRD1; format: cell-based; details: for Emax: read-out: Max Response; for EC50: read-out: RC50 (EC50); for IC50: read-out: RC50 (IC50)
T5 construct: purchased Eurofins Panlab (Safety47 Safety Scan, contract panel)

CAV1.2 = molecular target: T6, CAV1.2 (Homo sapiens, UniProt Q13936); assay: Safety47 Ion Channel CAV1.2; format: cell-based; details: Blocker; for Emax: read-out: Max Response; for IC50: read-out: RC50 (IC50)
T6 construct: purchased Eurofins Panlab (Safety47 Safety Scan, contract panel)

AR = molecular target: T7, AR (Homo sapiens, UniProt P10275); assay: Safety47 NHR Nuclear Translocation AR; format: cell-based; details: for Emax: read-out: Max Response; for EC50: read-out: RC50 (EC50); for IC50: read-out: RC50 (IC50)
T7 construct: purchased Eurofins Panlab (Safety47 Safety Scan, contract panel)
T7 sequence (P10275 1-920): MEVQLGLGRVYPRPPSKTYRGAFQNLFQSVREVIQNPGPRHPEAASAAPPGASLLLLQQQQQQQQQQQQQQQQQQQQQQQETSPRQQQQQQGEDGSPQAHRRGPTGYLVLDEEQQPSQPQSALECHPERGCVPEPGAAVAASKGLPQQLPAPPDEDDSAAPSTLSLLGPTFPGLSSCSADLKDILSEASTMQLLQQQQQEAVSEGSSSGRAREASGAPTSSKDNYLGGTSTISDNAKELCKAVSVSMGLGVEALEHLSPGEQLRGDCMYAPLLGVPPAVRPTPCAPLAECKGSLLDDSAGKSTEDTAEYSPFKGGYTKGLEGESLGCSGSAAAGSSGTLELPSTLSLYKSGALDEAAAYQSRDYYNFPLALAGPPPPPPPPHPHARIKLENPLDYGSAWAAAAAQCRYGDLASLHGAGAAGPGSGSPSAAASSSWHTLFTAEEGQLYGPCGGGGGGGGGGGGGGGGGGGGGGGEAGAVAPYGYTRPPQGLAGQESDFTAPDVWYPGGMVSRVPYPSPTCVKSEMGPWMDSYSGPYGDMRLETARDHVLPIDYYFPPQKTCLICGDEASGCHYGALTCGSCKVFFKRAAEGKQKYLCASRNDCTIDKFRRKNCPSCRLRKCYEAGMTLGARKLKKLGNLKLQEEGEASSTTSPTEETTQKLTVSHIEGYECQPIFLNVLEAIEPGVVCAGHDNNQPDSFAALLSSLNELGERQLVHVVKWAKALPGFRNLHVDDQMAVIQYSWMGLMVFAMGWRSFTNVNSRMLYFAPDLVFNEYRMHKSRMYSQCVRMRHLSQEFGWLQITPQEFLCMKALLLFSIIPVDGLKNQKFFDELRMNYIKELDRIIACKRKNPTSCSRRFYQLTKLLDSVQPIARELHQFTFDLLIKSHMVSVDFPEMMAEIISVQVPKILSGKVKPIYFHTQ

COX1 = molecular target: T8, COX1 (Homo sapiens, UniProt P23219); assay: Safety47 Enzymatic COX1; format: biochemical; details: Inhibitor; for Emax: read-out: Max Response; for IC50: read-out: RC50 (IC50)
T8 construct: purchased Eurofins Panlab (Safety47 Safety Scan, contract panel)

PDE4D2 = molecular target: T9, PDE4D2 (Homo sapiens, UniProt Q08499); assay: Safety47 Enzymatic PDE4D2; format: biochemical; details: Inhibitor; for Emax: read-out: Max Response; for IC50: read-out: RC50 (IC50)
T9 construct: purchased Eurofins Panlab (Safety47 Safety Scan, contract panel)

DAT = molecular target: T10, DAT (Homo sapiens, UniProt Q01959); assay: Safety47 Transporter DAT; format: cell-based; details: Blocker; for Emax: read-out: Max Response; for IC50: read-out: RC50 (IC50)
T10 construct: purchased Eurofins Panlab (Safety47 Safety Scan, contract panel)
T10 sequence (Q01959 whole entry, species assumed): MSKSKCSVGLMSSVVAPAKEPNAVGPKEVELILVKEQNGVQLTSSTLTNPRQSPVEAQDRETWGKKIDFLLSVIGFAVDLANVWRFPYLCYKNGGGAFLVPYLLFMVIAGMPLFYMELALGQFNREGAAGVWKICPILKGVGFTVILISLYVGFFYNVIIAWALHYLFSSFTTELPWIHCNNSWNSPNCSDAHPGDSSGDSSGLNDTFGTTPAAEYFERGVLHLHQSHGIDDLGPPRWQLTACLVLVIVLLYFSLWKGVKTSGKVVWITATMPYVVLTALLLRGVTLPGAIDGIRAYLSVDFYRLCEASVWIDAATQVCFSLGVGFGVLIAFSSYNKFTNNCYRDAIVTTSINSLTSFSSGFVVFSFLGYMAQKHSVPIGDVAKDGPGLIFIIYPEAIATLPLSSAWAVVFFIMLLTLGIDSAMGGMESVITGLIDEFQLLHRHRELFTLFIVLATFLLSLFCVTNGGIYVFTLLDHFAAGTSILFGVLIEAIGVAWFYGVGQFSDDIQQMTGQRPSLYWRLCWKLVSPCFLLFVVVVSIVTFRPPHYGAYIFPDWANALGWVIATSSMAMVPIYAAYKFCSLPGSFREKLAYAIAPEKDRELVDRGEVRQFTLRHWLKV

T5 sequence (P41143 whole entry, species assumed): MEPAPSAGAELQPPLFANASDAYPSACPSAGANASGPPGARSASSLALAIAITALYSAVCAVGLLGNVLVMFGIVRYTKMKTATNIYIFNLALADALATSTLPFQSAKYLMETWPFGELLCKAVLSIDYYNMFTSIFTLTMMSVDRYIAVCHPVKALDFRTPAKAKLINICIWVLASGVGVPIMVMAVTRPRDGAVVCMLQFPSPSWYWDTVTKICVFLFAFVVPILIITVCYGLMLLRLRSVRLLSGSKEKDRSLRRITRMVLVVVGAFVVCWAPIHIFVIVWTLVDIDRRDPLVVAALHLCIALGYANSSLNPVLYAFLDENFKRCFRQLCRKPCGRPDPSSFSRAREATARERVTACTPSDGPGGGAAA
T9 sequence (Q08499 303-809 limits assumed): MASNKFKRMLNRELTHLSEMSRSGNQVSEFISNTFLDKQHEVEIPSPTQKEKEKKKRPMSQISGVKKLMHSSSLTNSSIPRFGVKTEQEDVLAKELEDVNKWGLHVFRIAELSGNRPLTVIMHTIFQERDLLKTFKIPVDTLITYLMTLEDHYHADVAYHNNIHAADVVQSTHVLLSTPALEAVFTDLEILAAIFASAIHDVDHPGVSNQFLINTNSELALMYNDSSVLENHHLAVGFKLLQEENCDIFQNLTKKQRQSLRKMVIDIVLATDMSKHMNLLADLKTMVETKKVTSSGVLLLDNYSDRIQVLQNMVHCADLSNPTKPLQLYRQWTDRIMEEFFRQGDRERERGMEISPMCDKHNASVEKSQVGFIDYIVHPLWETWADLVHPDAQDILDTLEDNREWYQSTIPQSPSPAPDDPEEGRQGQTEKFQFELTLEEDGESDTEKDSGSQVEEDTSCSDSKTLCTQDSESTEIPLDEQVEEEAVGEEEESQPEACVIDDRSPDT
T1 sequence (P29274 whole entry): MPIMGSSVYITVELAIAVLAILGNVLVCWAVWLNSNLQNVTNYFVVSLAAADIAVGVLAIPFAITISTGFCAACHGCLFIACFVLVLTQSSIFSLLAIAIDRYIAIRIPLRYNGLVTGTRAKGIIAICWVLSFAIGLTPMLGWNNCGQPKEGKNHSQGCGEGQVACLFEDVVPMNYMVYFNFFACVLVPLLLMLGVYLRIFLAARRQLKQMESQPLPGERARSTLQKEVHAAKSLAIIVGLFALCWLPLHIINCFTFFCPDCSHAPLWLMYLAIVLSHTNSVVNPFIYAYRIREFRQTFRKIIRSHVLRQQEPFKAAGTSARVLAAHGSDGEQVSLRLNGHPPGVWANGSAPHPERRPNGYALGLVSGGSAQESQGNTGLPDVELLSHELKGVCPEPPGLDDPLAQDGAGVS
T4 sequence (P21554 whole entry): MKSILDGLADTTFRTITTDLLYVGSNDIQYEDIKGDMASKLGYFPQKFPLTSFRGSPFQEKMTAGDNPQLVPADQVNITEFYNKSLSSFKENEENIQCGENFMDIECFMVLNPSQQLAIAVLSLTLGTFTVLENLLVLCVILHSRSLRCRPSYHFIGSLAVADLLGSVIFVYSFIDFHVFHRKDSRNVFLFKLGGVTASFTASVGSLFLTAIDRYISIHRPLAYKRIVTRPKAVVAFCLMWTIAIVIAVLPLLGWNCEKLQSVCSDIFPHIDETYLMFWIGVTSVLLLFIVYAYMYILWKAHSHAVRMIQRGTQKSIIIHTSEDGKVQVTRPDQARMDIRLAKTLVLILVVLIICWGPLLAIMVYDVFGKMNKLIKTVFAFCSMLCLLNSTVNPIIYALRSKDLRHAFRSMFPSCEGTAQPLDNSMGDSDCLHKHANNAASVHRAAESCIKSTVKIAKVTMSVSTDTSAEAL
T8 sequence (P23219 24-599): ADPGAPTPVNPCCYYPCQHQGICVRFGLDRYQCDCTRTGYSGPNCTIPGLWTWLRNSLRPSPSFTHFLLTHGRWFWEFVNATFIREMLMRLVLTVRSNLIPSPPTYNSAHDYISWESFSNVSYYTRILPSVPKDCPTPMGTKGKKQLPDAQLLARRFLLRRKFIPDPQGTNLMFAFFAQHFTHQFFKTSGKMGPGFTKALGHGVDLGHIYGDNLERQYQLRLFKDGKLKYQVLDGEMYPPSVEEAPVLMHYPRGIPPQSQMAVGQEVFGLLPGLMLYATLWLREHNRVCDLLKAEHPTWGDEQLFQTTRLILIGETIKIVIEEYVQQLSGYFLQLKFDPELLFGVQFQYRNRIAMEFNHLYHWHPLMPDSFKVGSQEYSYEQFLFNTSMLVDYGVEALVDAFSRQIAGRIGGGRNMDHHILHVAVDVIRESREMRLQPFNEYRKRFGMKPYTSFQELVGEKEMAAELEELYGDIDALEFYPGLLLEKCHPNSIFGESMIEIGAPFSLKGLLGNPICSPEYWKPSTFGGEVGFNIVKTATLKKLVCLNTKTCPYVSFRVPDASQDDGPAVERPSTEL

Cl.c1ccc2c(Nc3ccc4[nH]ccc4c3)nc(-c3ccncc3)nc2c1 [BC18630, N-1H-indol-5-yl-2-pyridin-4-ylquinazolin-4-amine hydrochloride]
Emax (ADORA2A; Agonist): 3.09% | EC50 (ADORA2A; Agonist): > 10 µM | Emax (ADORA2A; Antagonist): 29.8% | IC50 (ADORA2A; Antagonist): > 10 µM | Emax (ADRA1A; Agonist): 0% | EC50 (ADRA1A; Agonist): > 10 µM | Emax (ADRA1A; Antagonist): 0% | IC50 (ADRA1A; Antagonist): > 10 µM | Emax (CHRM2; Agonist): 31.6% | EC50 (CHRM2; Agonist): > 10 µM | Emax (CHRM2; Antagonist): 0.25% | IC50 (CHRM2; Antagonist): > 10 µM | Emax (CNR1; Agonist): 0.8% | EC50 (CNR1; Agonist): > 10 µM | Emax (CNR1; Antagonist): 26.9% | IC50 (CNR1; Antagonist): > 10 µM | Emax (OPRD1; Agonist): 42.6% | EC50 (OPRD1; Agonist): > 10 µM | Emax (OPRD1; Antagonist): 9.94% | IC50 (OPRD1; Antagonist): > 10 µM | Emax (CAV1.2): 0% | IC50 (CAV1.2): > 10 µM | Emax (AR; Agonist): 0% | EC50 (AR; Agonist): > 10 µM | Emax (AR; Antagonist): 15.6% | IC50 (AR; Antagonist): > 10 µM | Emax (COX1): 21.8% | IC50 (COX1): > 10 µM | Emax (PDE4D2): 52.3% | IC50 (PDE4D2): > 10 µM | Emax (DAT): 37% | IC50 (DAT): > 10 µM

Cl.Fc1cc(Nc2nc(-c3ccncc3)nc3ncccc23)cc2cc[nH]c12 [BC18813, N-(7-fluoro-1H-indol-5-yl)-2-pyridin-4-ylpyrido[2,3-d]pyrimidin-4-amine hydrochloride]
Emax (ADORA2A; Agonist): 1.05% | EC50 (ADORA2A; Agonist): > 10 µM | Emax (ADORA2A; Antagonist): 37.7% | IC50 (ADORA2A; Antagonist): > 10 µM | Emax (ADRA1A; Agonist): 5.5% | EC50 (ADRA1A; Agonist): > 10 µM | Emax (ADRA1A; Antagonist): 1.12% | IC50 (ADRA1A; Antagonist): > 10 µM | Emax (CHRM2; Agonist): 47.7% | EC50 (CHRM2; Agonist): > 10 µM | Emax (CHRM2; Antagonist): 12.2% | IC50 (CHRM2; Antagonist): > 10 µM | Curve Bottom (CNR1; Agonist): 0 | Curve Top (CNR1; Agonist): 100 | Hill (CNR1; Agonist): 1.07 | Emax (CNR1; Agonist): 61% | EC50 (CNR1; Agonist): 6.11 µM | Emax (CNR1; Antagonist): 0% | IC50 (CNR1; Antagonist): > 10 µM | Emax (OPRD1; Agonist): 54.8% | EC50 (OPRD1; Agonist): > 10 µM | Emax (OPRD1; Antagonist): 0% | IC50 (OPRD1; Antagonist): > 10 µM | Emax (CAV1.2): 0% | IC50 (CAV1.2): > 10 µM | Emax (AR; Agonist): 0% | EC50 (AR; Agonist): > 10 µM | IC50 (AR; Antagonist): > 10 µM | Emax (COX1): 29.3% | IC50 (COX1): > 10 µM | Emax (PDE4D2): 44.4% | IC50 (PDE4D2): > 10 µM | Emax (DAT): 16.8% | IC50 (DAT): > 10 µM
